Where two headings read alike, the source gives them in different places.
What was measured:
ORYSA=Orysa sativa, Rice = assay: Postemergence foliar-applied herbicides and safeners in direct-seeded rice, visual injury; assay type: in vivo; details: for Visual crop injury (%) at 140 g/ha: Oryza sativa, 480 h, read-out: Visual Injury (%) - 20 DAA ORYSA-‘Clearfield 171’ Obs, foliar, Compound A form 140 g ae/ha alone; for Visual crop injury (%) at 140 g/ha / Visual Injury (%) - 21 DAA ORYSA-‘Clearfield 171’ Obs / Visual Injury (%) - 21 DAA ORYSA-‘Neptune’ Obs / Visual Injury (%) - 21 DAA ORYSA-‘Wells’ Obs: foliar; for Visual Injury (%) - 21 DAA ORYSA-‘Clearfield 171’ Obs / Visual Injury (%) - 21 DAA ORYSA-‘Neptune’ Obs / Visual Injury (%) - 21 DAA ORYSA-‘Wells’ Obs: Compound A form 70 g ae/ha alone, Tables 1,2,7,8; for Mean Visual Injury (%) - 20-22 DAA ORYSA ‘Clearfield 171’ / Mean Visual Injury (%) - 20-22 DAA ORYSA ‘Wells’: post-emergence foliar
Description: (§1) Seeds or nutlets of the desired test plant species were planted in a soil matrix prepared by mixing a loam or sandy loam soil (e.g., 28.6 percent silt, 18.8 percent clay, and 52.6 percent sand, with a pH of about 5.8 and an organic matter content of about 1.8 percent) and calcareous grit in an 80 to 20 ratio. The soil matrix was contained in plastic pots with a surface area of 84.6 square centimeters (cm^2). When required to ensure good germination and healthy plants, a fungicide treatment and/or other chemical or physical treatment was applied. The plants were grown for 8-22 days in a greenhouse with an approximate 14 hr photoperiod which was maintained at about 29° C. during the day and 26° C. during the night. Nutrients (Peters Excel 15-5-15 5-Ca 2-Mg and iron chelate) were applied in the irrigation solution as needed and water was added on a regular basis. Supplemental lighting was provided with overhead metal halide 1000-Watt lamps as necessary. The plants were employed for testing when they reached the second or third true leaf stage.
(§2) Treatments consisted of the acid or esters of 4-amino-3-chloro-5-fluoro-6-(4-chloro-2-fluoro-3-methoxy-phenyl)pyridine-2-carboxylic acid (compound A) and various safener components alone and in combination. Forms of compound A were applied on an acid equivalent basis. Safener components were applied on an active ingredient or acid equivalent basis depending on the compound.
(§3) Treatment requirements were calculated based upon the rates being tested, the concentration of active ingredient or acid equivalent in the formulation, and a 12 mL application volume at a rate of 187 L/ha.
(§4) For treatments comprised of formulated compounds, measured amounts of compounds were placed individually in 25 mL glass vials and diluted in a volume of 1.25% (v/v) Agri-dex crop oil concentrated to obtain 12× stock solutions. […] Application solutions were prepared by adding an appropriate amount of each stock solution (e.g., 1 mL) and diluted to the appropriate final concentrations with the addition of 10 mL of an aqueous mixture of 1.25% (v/v) Agri-dex crop oil concentrate so that the final spray solutions contained 1.25% (v/v) Agri-dex crop oil concentrate.
(§5) For treatments comprised of technical compounds, weighed amounts were placed individually in 25 mL glass vials and dissolved in a volume of 97:3 v/v acetone/DMSO to obtain 12× stock solutions. […] Application solutions were prepared by adding an appropriate amount of each stock solution (e.g., 1 mL) and diluted to the appropriate final concentrations with the addition of 10 mL of an aqueous mixture of 1.5% (v/v) Agri-dex crop oil concentrate so that the final spray solutions contained 1.25% (v/v) Agri-dex crop oil concentrate. When technical materials were used, the concentrated stock solutions were added to the spray solutions so that the final acetone and DMSO concentrations of the application solutions were […], respectively.
(§6) For treatments comprised of formulated and technical compounds, weighed amounts of the technical materials were placed individually in 25 mL glass vials and dissolved in a volume of 97:3 v/v acetone/DMSO to obtain 12× stock solutions, and measured amounts of the formulated compounds were placed individually in 25 mL glass vials and diluted in a volume of 1.5% (v/v) Agri-dex crop oil concentrate or water to obtain 12× stock solutions. […] Application solutions were prepared by adding an appropriate amount of each stock solution (e.g., 1 mL) and diluted to the appropriate final concentrations with the addition of an appropriate amount of an aqueous mixture of 1.5% (v/v) Agri-dex crop oil concentrate so that the final spray solutions contained 1.25% (v/v) Agri-dex crop oil concentrate. When required, additional water and/or 97:3 v/v acetone/DMSO was added to individual application solutions so that the final acetone and DMSO concentrations of the application solutions being compared were 8.1% and 0.25%, respectively. […]

[1] = system: ECHCG=Echinochloa crus-galli; assay: Postemergence foliar-applied herbicides and safeners, visual injury of weed; assay type: in vivo; details: for pest or weed control at 140 g/ha: Echinochloa crus-galli, foliar, 480 h, read-out: Visual Injury (%) - 20 DAA ECHCG Obs, foliar, Compound A form 140 g ae/ha alone; for Mean Visual Injury (%) - 20-22 DAA ECHCG: post-emergence foliar
Description: as §1, §2, §3, §4, §5, §6

Structure (SMILES) | Visual crop injury (%) at 140 g/ha (ORYSA=Orysa sativa, Rice; trial of Tables 3,4,6,10,12,14) [%] | Visual crop injury (%) at 140 g/ha (ORYSA=Orysa sativa, Rice; trial of Tables 5,9,11,13) [%] | Visual Injury (%) - 21 DAA ORYSA-‘Clearfield 171’ Obs (ORYSA=Orysa sativa, Rice) [%] | Visual Injury (%) - 21 DAA ORYSA-‘Neptune’ Obs (ORYSA=Orysa sativa, Rice) [%] | Visual Injury (%) - 21 DAA ORYSA-‘Wells’ Obs (ORYSA=Orysa sativa, Rice) [%] | Mean Visual Injury (%) - 20-22 DAA ORYSA ‘Clearfield 171’ (ORYSA=Orysa sativa, Rice; 2 g ae/ha) [%] | Mean Visual Injury (%) - 20-22 DAA ORYSA ‘Wells’ (ORYSA=Orysa sativa, Rice; 2 g ae/ha) [%] | Mean Visual Injury (%) - 20-22 DAA ORYSA ‘Clearfield 171’ (ORYSA=Orysa sativa, Rice; 4 g ae/ha) [%] | Mean Visual Injury (%) - 20-22 DAA ORYSA ‘Wells’ (ORYSA=Orysa sativa, Rice; 4 g ae/ha) [%] | Mean Visual Injury (%) - 20-22 DAA ORYSA ‘Clearfield 171’ (ORYSA=Orysa sativa, Rice; 8 g ae/ha) [%] | Mean Visual Injury (%) - 20-22 DAA ORYSA ‘Wells’ (ORYSA=Orysa sativa, Rice; 8 g ae/ha) [%] | Mean Visual Injury (%) - 20-22 DAA ORYSA ‘Clearfield 171’ (ORYSA=Orysa sativa, Rice; 16 g ae/ha) [%] | Mean Visual Injury (%) - 20-22 DAA ORYSA ‘Wells’ (ORYSA=Orysa sativa, Rice; 16 g ae/ha) [%] | Mean Visual Injury (%) - 20-22 DAA ORYSA ‘Clearfield 171’ (ORYSA=Orysa sativa, Rice; 32 g ae/ha) [%] | Mean Visual Injury (%) - 20-22 DAA ORYSA ‘Wells’ (ORYSA=Orysa sativa, Rice; 32 g ae/ha) [%] | pest or weed control at 140 g/ha ([1]; trial of Tables 3,4,6,10,12,14) [%] | pest or weed control at 140 g/ha ([1]; trial of Tables 5,9,11,13) [%] | Mean Visual Injury (%) - 20-22 DAA ECHCG ([1]; 2 g ae/ha) [%] | Mean Visual Injury (%) - 20-22 DAA ECHCG ([1]; 4 g ae/ha) [%] | Mean Visual Injury (%) - 20-22 DAA ECHCG ([1]; 8 g ae/ha) [%] | also measured
COc1c(Cl)ccc(-c2nc(C(=O)O)c(Cl)c(N)c2F)c1F [Acid, 4-amino-3-chloro-6-(4-chloro-2-fluoro-3-methoxyphenyl)-5-fluoropyridine-2-carboxylic acid] | 43 | 38 | 22 | 40 | 12 | 0 | 0 | 0 | 0 | 2 | 0 | 11 | 7 | 24 | 12 | 98 | 96 | 57 | 81 | 91 | Mean Visual Injury (%) - 20-22 DAA ECHCG ([1]; 16 g ae/ha): 95%; Mean Visual Injury (%) - 20-22 DAA ECHCG ([1]; 32 g ae/ha): 96%
COc1c(Cl)ccc(-c2nc(C(=O)OCc3ccccc3)c(Cl)c(N)c2F)c1F [Benzyl] | 13 | 15 | 0 | 5 | 0 | 0 | 0 | 0 | 0 | 0 | 0 | 8 | 3 | 3 | 3 | 98 | 99 | 63 | 91 | 94 | Mean Visual Injury (%) - 20-22 DAA ECHCG ([1]; 16 g ae/ha): 95%; Mean Visual Injury (%) - 20-22 DAA ECHCG ([1]; 32 g ae/ha): 96%
